# US20170181971A1, “Nanoparticle- and Drug-Containing Polymersomes for Medical Applications” (Northeastern University, priority 2014, published 2017)
# Test system: ampicillin-resistant E. coli
# Experiment: Bacterial growth curve (OD600 for 24 hours) after treatment
# Assay type: cell-based
# Description: Bacteria transformation. First, an overnight suspension of E. coli cells (strain K-12 HB101; Bio-Rad, Hercules, Calif.) was pelleted by centrifugation and re-suspended in 250 μL of cold 50 mM calcium chloride (Sigma-Aldrich, St. Louis, Mo.) and placed in an ice bath. After 15 minutes on ice, 10 μg of the plasmid DNA was added, and the cells were returned to the ice bath for an additional 15 minutes. The cells were then heat shocked by placing them in a 42° C. water bath for exactly 45 seconds and then rapidly transferring them back to the ice bath for 2 minutes. This solution was then mixed with 750 μL of Lysogeny broth (LB, Sigma-Aldrich, St. Louis, Mo.). Finally, the complete transformed bacteria solution was streaked for inoculation on a LBagar plate containing 100 μg mL−1 of ampicillin and allowed to incubate overnight at 37° C.
# Bacterial interactions. For each experimental trial, a single bacterial colony was selected and grown overnight in LB on a shaking incubator set at 200 rpm and 37° C. […] 100 μL of the bacterial suspension was then combined with varying AgPs treatment concentrations or controls in a 96 well plate. The final treatment volume in each well was brought up to 100 μL using 0.01 M PBS (e.g. 100 μL treatment +0 μL PBS, 90 μL treatment+10 μL PBS, 80 μL treatment+20 μL PBS, etc.). Control treatments were given 100 μL of PBS to keep the media dilution consistent. […]
structure (smiles),measurement,setting,value
"CC1(C)S[C@@H]2[C@H](NC(=O)[C@H](N)c3ccccc3)C(=O)N2[C@H]1C(=O)O [free ampicillin, ampicillin]",bacteriostatic action (delay in time to reach exponential growth phase),"10^6 CFU mL^−1, OD600 for 24 hours",no bacteriostatic effect
same,difference in bacterial growth between control treatments (incl. PBS),"ampicillin at 200 μg mL^−1, FIG. 7G",no significant differences
